Reference: PubChem BioAssay AID248 (DTP/NCI, 2004)
Inconclusive results and toxic doses are left out. Rule as the data show it: active = T/C of 150% or more; inactive = T/C below 125%.

Tested on: L1210 leukemia ip in BDF1 mice, survival T/C
Assay: NCI In Vivo Anticancer Drug Screen. Data for tumor model L1210 Leukemia (intraperitoneal) in B6D2F1 (BDF1) mice
Settings: endpoint: mean survival time, higher = longer survival
Method in brief: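 Tumor cells were implanted, animals were treated, and survival was followed. The result divides the treated measurement by the vehicle-control measurement.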

[1] = dose: 100.0 mg/kg/injection, schedule: Q01DX009 (ip), vehicle: saline with Tween-80
[2] = dose: 200.0 mg/kg/injection, schedule: Q01DX009 (ip), vehicle: saline with Tween-80
[3] = dose: 400.0 mg/kg/injection, schedule: Q01DX009 (ip), vehicle: saline with Tween-80
[4] = dose: 100.0 mg/kg/injection, schedule: Q04DX003 (ip), vehicle: Klucel (hydroxypropylcellulose) (HPC)
[5] = dose: 200.0 mg/kg/injection, schedule: Q04DX003 (ip), vehicle: Klucel (hydroxypropylcellulose) (HPC)
[6] = dose: 400.0 mg/kg/injection, schedule: Q04DX003 (ip), vehicle: Klucel (hydroxypropylcellulose) (HPC)

Measured: T/C

CC(=O)SC(C)CC(=O)O (stereo unspecified)
inactive: dose: 100.0 mg/kg/injection, schedule: Q04DX003 (ip), vehicle: saline 106 % of control | dose: 200.0 mg/kg/injection, schedule: Q04DX003 (ip), vehicle: saline 101 % of control

CCc1cccc(CC)c1N(C(C)=O)C(C)=O
inactive: [1] 98 % of control | [2] 104 % of control | [3] 102 % of control

COC(=O)c1ccccc1N=NNc1ccc(-c2nc(N)nc(N)n2)cc1
inactive: [4] 100 % of control | dose: 200.0 mg/kg/injection, schedule: Q01DX009 (ip), vehicle: Klucel (hydroxypropylcellulose) (HPC) 100 % of control | [5] 94 % of control | dose: 400.0 mg/kg/injection, schedule: Q01DX009 (ip), vehicle: Klucel (hydroxypropylcellulose) (HPC) 100 % of control | [6] 95 % of control

O=C(Nc1ccc(NC(=O)Nc2cccc(C3=NCCCN3)c2)cc1)Nc1ccc(C2=NCCCN2)cc1
inactive: dose: 1.25 mg/kg/injection, schedule: Q01DX Z (ip), vehicle: carboxymethylcellulose (CMC) 102 % of control | dose: 2.5 mg/kg/injection, schedule: Q01DX Z (ip), vehicle: carboxymethylcellulose (CMC) 109 % of control | dose: 5.0 mg/kg/injection, schedule: Q01DX Z (ip), vehicle: carboxymethylcellulose (CMC) 113 % of control | dose: 50.0 mg/kg/injection, schedule: Q01DX Z (oral), vehicle: carboxymethylcellulose (CMC) 102 % of control | dose: 100.0 mg/kg/injection, schedule: Q01DX Z (oral), vehicle: carboxymethylcellulose (CMC) 107 % of control | dose: 200.0 mg/kg/injection, schedule: Q01DX Z (oral), vehicle: carboxymethylcellulose (CMC) 104 % of control | dose: 400.0 mg/kg/injection, schedule: Q01DX Z (oral), vehicle: carboxymethylcellulose (CMC) 102 % of control
active: dose: 8.5 mg/kg/injection, schedule: Q01DX Z (ip), vehicle: carboxymethylcellulose (CMC) 170 % of control | dose: 10.0 mg/kg/injection, schedule: Q01DX Z (ip), vehicle: carboxymethylcellulose (CMC) 167 % of control | dose: 15.0 mg/kg/injection, schedule: Q01DX Z (ip), vehicle: carboxymethylcellulose (CMC) 157 % of control | dose: 17.0 mg/kg/injection, schedule: Q01DX Z (ip), vehicle: carboxymethylcellulose (CMC) 151 % of control

Cc1cccc(C(=O)NC(=S)Nc2ccccc2)c1
inactive: dose: 5.0 mg/kg/injection, schedule: Q01DX001 (ip), vehicle: saline 97 % of control | dose: 10.0 mg/kg/injection, schedule: Q01DX001 (ip), vehicle: saline 103 % of control | dose: 20.0 mg/kg/injection, schedule: Q01DX001 (ip), vehicle: saline 97 % of control

O=C(N/N=C\c1c(O)ccc2ccccc12)c1ccncc1
inactive: [4] 106 % of control | [5] 101 % of control | [6] 108 % of control

CN(C)c1ccc(/C=N/NC(=O)C(O)(c2ccccc2)c2ccccc2)cc1
inactive: [1] 98 % of control | [2] 98 % of control | [3] 88 % of control

CC(C)(CO)N=Cc1ccccc1O.CC(C)(CO)N=Cc1ccccc1O.[Ni]
inactive: dose: 75.0 mg/kg/injection, schedule: Q01DX001 (ip), vehicle: other 110 % of control | dose: 150.0 mg/kg/injection, schedule: Q01DX001 (ip), vehicle: other 117 % of control

BrC1c2ccccc2-c2nc3ccccc3cc21 (stereo unspecified)
inactive: dose: 37.5 mg/kg/injection, schedule: Q01DX001 (ip), vehicle: Klucel (hydroxypropylcellulose) (HPC) 103 % of control | dose: 75.0 mg/kg/injection, schedule: Q01DX001 (ip), vehicle: Klucel (hydroxypropylcellulose) (HPC) 97 % of control | dose: 150.0 mg/kg/injection, schedule: Q01DX001 (ip), vehicle: Klucel (hydroxypropylcellulose) (HPC) 101 % of control

COC(CSc1ncc2cnccn12)OC
inactive: dose: 100.0 mg/kg/injection, schedule: Q01DX009 (ip), vehicle: water 102 % of control | dose: 100.0 mg/kg/injection, schedule: Q04DX003 (ip), vehicle: water 103 % of control | dose: 200.0 mg/kg/injection, schedule: Q01DX009 (ip), vehicle: water 100 % of control | dose: 200.0 mg/kg/injection, schedule: Q04DX003 (ip), vehicle: water 106 % of control | dose: 400.0 mg/kg/injection, schedule: Q01DX009 (ip), vehicle: water 100 % of control | dose: 400.0 mg/kg/injection, schedule: Q04DX003 (ip), vehicle: water 108 % of control

O=c1[nH]cnc2c1ncn2C1SC(CO)C(O)C1O (stereo unspecified)
inactive: dose: 100.0 mg/kg/injection, schedule: Q01DX005 (ip), vehicle: saline 103 % of control | dose: 200.0 mg/kg/injection, schedule: Q01DX005 (ip), vehicle: saline 106 % of control

CS(=O)(=O)N(c1ccccc1)c1ccccc1N
inactive: dose: 100.0 mg/kg/injection, schedule: Q01DX001 (ip), vehicle: other 94 % of control | dose: 200.0 mg/kg/injection, schedule: Q01DX001 (ip), vehicle: other 107 % of control | dose: 400.0 mg/kg/injection, schedule: Q01DX001 (ip), vehicle: other 88 % of control
